Laboratory results reported in US12240862B2, “Inhibitors of peptidylarginine deiminases” (Gilead Sciences, Inc., priority 2020, dated 2025).

Biological target: T1, human PAD4 (Homo sapiens, UniProt Q9UM07)
T1 construct: human PAD4 (NM_012387), A2P663, was PCR amplified; His-SUMO (N, cleaved yes); made in house; host or cells: E. coli BL21(DE3)
Experiment: In vitro PAD4 BAEE biochemical assay
Conditions: human PAD4, BAEE substrate; 5 nM PAD4, 2 mM calcium chloride, 3 mM BAEE; geometric mean of multiple experiments
Summary of the method: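 Ammonia generated from BAEE serves as the readout, measured by o-phthalaldehyde after EDTA termination. Final conditions: 5 nM human PAD4 (SUMO tag cleaved), 2 mM CaCl2, 3 mM BAEE, pH 7.6 MOPS buffer, 25 °C for 2 h following a 30-min compound preincubation.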

T1 sequence (Q9UM07 2-663): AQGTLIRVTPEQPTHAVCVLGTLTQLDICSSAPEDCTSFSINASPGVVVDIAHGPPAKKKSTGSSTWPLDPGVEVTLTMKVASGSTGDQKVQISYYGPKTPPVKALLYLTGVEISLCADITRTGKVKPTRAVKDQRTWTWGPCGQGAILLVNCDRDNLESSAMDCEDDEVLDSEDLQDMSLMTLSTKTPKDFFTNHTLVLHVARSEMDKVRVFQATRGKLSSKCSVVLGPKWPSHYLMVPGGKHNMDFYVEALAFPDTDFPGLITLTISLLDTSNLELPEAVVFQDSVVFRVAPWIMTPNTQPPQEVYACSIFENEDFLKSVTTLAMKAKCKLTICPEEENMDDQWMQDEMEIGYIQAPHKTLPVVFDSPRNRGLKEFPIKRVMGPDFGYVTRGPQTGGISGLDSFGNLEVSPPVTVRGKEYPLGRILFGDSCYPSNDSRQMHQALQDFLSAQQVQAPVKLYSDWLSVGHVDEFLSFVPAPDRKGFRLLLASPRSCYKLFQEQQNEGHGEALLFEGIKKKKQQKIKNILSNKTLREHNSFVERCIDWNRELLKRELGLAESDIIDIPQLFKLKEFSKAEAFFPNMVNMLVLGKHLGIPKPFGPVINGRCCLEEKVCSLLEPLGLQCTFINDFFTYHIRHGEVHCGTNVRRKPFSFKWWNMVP

Compound	IC50 [nM]
COc1cc(C(=O)N2C[C@H](N)CC[C@@H]2C)cc2nc(-c3cc4ccc(-c5c(C)nn(CC(N)=O)c5C)nc4n3CC3CC3)c(C)n12 [Example 609, 2-[4-[2-[7-[(2~{S}, 5~{R})-5-amino-2-methylpiperidine-1-carbonyl]-5-methoxy-3-methylimidazo [1,2-a]pyridin-2-yl]-1-(cyclopropylmethyl)pyrrolo [2,3-b]pyridin-6-yl]-3,5-dimethylpyrazol-1-yl]acetamide]	711
COc1cc(C(=O)N2C[C@H](N)CC[C@@H]2C)cc2nc(-c3cc4ccc(C#N)nc4n3CC3CC3)c(C)n12 [Example 610, 2-[7-[(2~{S},5~{R})-5-amino-2-methylpiperidine-1-carbonyl]-5-methoxy-3-methylimidazo[1,2-a]pyridin-2-yl]-1-(cyclopropylmethyl) pyrrolo[2,3-b] pyridine-6-carbonitrile]	4630
COc1cc(C(=O)N2C[C@H](N)CC[C@@H]2C)cc2nc(-c3cc4ccc(-c5c(C)n[nH]c5C)nc4n3CC3CC3)c(C)n12 [Example 611, [(2~{S},5~{R})-5-amino-2-methylpiperidin-1-yl]-[2-[1-(cyclopropylmethyl)-6-(3,5-dimethyl-1~{H}-pyrazol-4-yl)pyrrolo[2,3-b]pyridin-2-yl]-5-methoxy-3-methylimidazo[1,2-a]pyridin-7-yl]methanone]	726
COc1cc(C(=O)N2C[C@H](N)CCN2C)cc2nc(-c3cc4ccc([C@@H](C)NC(=O)C56CC(F)(C5)C6)nc4n3CC3CC3)c(C)n12 [Example 615, N—((R)-1-(2-(7-((R)-5-amino-2-methylhexahydropyridazine-1-carbonyl)-5-methoxy-3-methylimidazo[1,2-a]pyridin-2-yl)-1-(cyclopropylmethyl)-1H-pyrrolo[2,3-b]pyridin-6-yl)ethyl)-3-fluorobicyclo[1.1.1]pentane-1-carboxamide]	69.6
COc1cc(C(=O)N2CCC[C@@H](N)C2)cc2nc(-c3cc4ccc(O[C@@H](C)C(=O)N(C)C)nc4n3CC3CC3)c(C)n12 [Example 617, (2~{S})-2-[2-[7-[(3~{R})-3-aminopiperidine-1-carbonyl]-5-methoxy-3-methylimidazo[1,2-a]pyridin-2-yl]-1-(cyclopropylmethyl)pyrrolo [2,3-b]pyridin-6-yl]oxy-~{N},~{N}-dimethylpropanamide]	6980
COc1cc(C(=O)N2CCC[C@@H](N)C2)cc2nc(-c3cc4ccc(OCC(=O)N(C)C)nc4n3CC3CC3)c(C)n12 [Example 620, 2-[2-[7-[(3~{R})-3-aminopiperidine-1-carbonyl]-5-methoxy-3-methylimidazo[1,2-a]pyridin-2-yl]-1-(cyclopropylmethyl)pyrrolo[2,3-b]pyridin-6-yl] oxy-~{N},~{N}-dimethylacetamide]	1190
COc1cc(C(=O)N2CCC[C@@H](N)C2)cc2nc(-c3cc4ccc(OCC(N)=O)nc4n3CC3CC3)c(C)n12 [Example 621, 2-[2-[7-[(3~{R})-3-aminopiperidine-1-carbonyl]-5-methoxy-3-methylimidazo[1,2-a]pyridin-2-yl]-1-(cyclopropylmethyl)pyrrolo [2,3-b]pyridin-6-yl]oxyacetamide]	1020
COc1cc(C(=O)N2CCC[C@@H](N)C2)cc2nc(-c3cc4ccc(OC5CCN(C)C5=O)nc4n3CC3CC3)c(C)n12 (some centres unmarked) [Example 623, 3-[2-[7-[(3~{R})-3-aminopiperidine-1-carbonyl]-5-methoxy-3-methylimidazo[1,2-a]pyridin-2-yl]-1-(cyclopropylmethyl)pyrrolo [2,3-b]pyridin-6-yl]oxy-1-methylpyrrolidin-2-one]	131
COc1cc(C(=O)N2[C@H]3CC[C@@H]2[C@H](N)C3)cc2nc(-c3cc4ccc(OCC(=O)N(C)C)nc4n3CC3CC3)c(C)n12 [Example 624, 2-[2-[7-[(1~{R},2~{R}, 4~{S})-2-amino-7-azabicyclo[2.2.1]heptane-7-carbonyl]-5-methoxy-3-methylimidazo[1,2-a]pyridin-2-yl]-1-(cyclopropylmethyl)pyrrolo [2,3-b]pyridin-6-yl] oxy-~{N},~{N}-dimethylacetamide]	114
COc1cc(C(=O)N2[C@H]3CC[C@@H]2[C@H](N)C3)cc2nc(-c3cc4ccc(Oc5ccccc5)nc4n3CC3CC3)c(C)n12 [Example 628, [(1~{R},2~{R},4~{S})-2-amino-7-azabicyclo [2.2.1]heptan-7-yl]-[2-[1-(cyclopropylmethyl)-6-phenoxypyrrolo[2,3-b]pyridin-2-yl]-5-methoxy-3-methylimidazo[1,2-a]pyridin-7-yl]methanone]	553
[(1~{R},2~{R},4~{S})-2- amino-7- azabicyclo[2.2.1]heptane-7- carbonyl]- 5-methoxy-3-methylimidazo [1,2-a]pyridin-2-yl]-1- (cyclopropylmethyl)pyrrolo [2,3-b]pyridin-6-yl]ethyl]-3- hydroxybicyclo[1.1.1] pentane-1-carboxamide [Example 87]	28.6

The remaining compounds from weak to strong by IC50, led by results:

IC50 [nM]	Compound
10000	COc1cc(C(=O)N2CCC[C@@H](N)C2)cc2nc(-c3cc4ccc(O[C@@H](C)C(=O)NC56CC(F)(C5)C6)nc4n3CC3CC3)c(C)n12 [Example 631, (2~{S})-2-[2-[7-[(3~{R})-3-aminopiperidine-1-carbonyl]-5-methoxy-3-methylimidazo[1,2-a]pyridin-2-yl]-1-(cyclopropylmethyl)pyrrolo[2,3-b]pyridin-6-yl]oxy-~{N}-(3-fluoro-1-bicyclo[1.1.1]pentanyl)propanamide]
9400	(2~{S})-2-[2-[7-[(3~{R})-3- aminopiperidine-1- carbonyl]-5-methoxy-3- methylimidazo[1,2- a]pyridin-2-yl]-1- (cyclopropylmethyl)pyrrolo [2,3-b]pyridin-6-yl] oxy-~{N}- methylpropanamide [Example 630]
3360	COc1cc(C(=O)N2[C@H]3CC[C@@H]2[C@H](N)C3)cc2nc(-c3cc4ccc(OCc5ccccc5)nc4n3CC3CC3)c(C)n12 [Example 627, [(1~{R},2~{R},4~{S})-2-amino-7-azabicyclo [2.2.1]heptan-7-yl]-[2-[1-(cyclopropylmethyl)-6-phenylmethoxypyrrolo[2,3-b]pyridin-2-yl]-5-methoxy-3-methylimidazo[1,2-a]pyridin-7-yl]methanone]
2270	COc1ccc2cc(-c3nc4cc(C(=O)N5CCC[C@@H](N)C5)cc(OC)n4c3C)n(CC3CC3)c2n1 [Example 629, [(3~{R})-3-aminopiperidin-1-yl]-[2-[1-(cyclopropylmethyl)-6-methoxypyrrolo[2,3-b]pyridin-2-yl]-5-methoxy-3-methylimidazo[1,2-a]pyridin-7-yl]methanone]
894	CNC(=O)COc1ccc2cc(-c3nc4cc(C(=O)N5CCC[C@@H](N)C5)cc(OC)n4c3C)n(CC3CC3)c2n1 [Example 622, 2-[2-[7-[(3~{R})-3-aminopiperidine-1-carbonyl]-5-methoxy-3-methylimidazo[1,2-a]pyridin-2-yl]-1-(cyclopropylmethyl)pyrrolo [2,3-b]pyridin-6-yl] oxy-~{N}-methylacetamide]
743	COc1cc(C(=O)N2C[C@H](N)CC[C@@H]2C)cc2nc(-c3cc4ccc(C5CC5)nc4n3CC3CC3)c(C)n12 [Example 612, [(2~{S},5~{R})-5-amino-2-methylpiperidin-1-yl]-[2-[6-cyclopropyl-1-(cyclopropylmethyl)pyrrolo [2,3-b]pyridin-2-yl]-5-methoxy-3-methylimidazo[1,2-a]pyridin-7-yl]methanone]
686	COc1cc(C(=O)N2CCC[C@@H](N)C2)cc2nc(-c3cc4ccc(O[C@H](C)C(=O)N(C)C)nc4n3CC3CC3)c(C)n12 [Example 619, (2~{R})-2-[2-[7-[(3~{R})-3-aminopiperidine-1-carbonyl]-5-methoxy-3-methylimidazo [1,2-a]pyridin-2-yl]-1-(cyclopropylmethyl)pyrrolo [2,3-b]pyridin-6-yl]oxy-~{N},~{N}-dimethylpropanamide]
401	CNC(=O)[C@@H](C)Oc1ccc2cc(-c3nc4cc(C(=O)N5CCC[C@@H](N)C5)cc(OC)n4c3C)n(CC3CC3)c2n1 [Example 618]
302	CCc1ccc2cc(-c3nc4cc(C(=O)N5CCC[C@@H](N)C5)cc(OC)n4c3C)n(CC3CC3)c2n1 [Example 613, [(3~{R})-3-aminopiperidin-1-yl]-[2-[1-(cyclopropylmethyl)-6-ethylpyrrolo[2,3-b]pyridin-2-yl]-5-methoxy-3-methylimidazo [1,2-a]pyridin-7-yl] methanone]
140	COc1cc(C(=O)N2C[C@H](N)[C@@H]3CC[C@H]2C3)cc2nc(-c3cc4ccc([C@@H](C)NC(=O)C56CC(C#N)(C5)C6)nc4n3CC3CC3)c(C3CC3)n12 [Example 632, N-((R)-1-(2-(7-((1S,4R,5R)-4-amino-2-azabicyclo[3.2.1]octane-2-carbonyl)-3-cyclopropyl-5-methoxyimidazo[1,2-a]pyridin-2-yl)-1-(cyclopropylmethyl)-1H-pyrrolo[2,3-b]pyridin-6-yl)ethyl)-3-cyanobicyclo [1.1.1]pentane-1-carboxamide]
106	[(1~{R},2~{R},4~{S})-2- amino-7-azabicyclo [2.2.1]heptan-7-yl]-[2-[1- (cyclopropylmethyl)-6-(6- hydroxy-2-methylpyridin- 3-yl)pyrrolo[2,3-b] pyridin-2-yl]-5-methoxy-3- methylimidazo[1,2-a] pyridin-7-yl]methanone [Example 563]
90.2	COc1cc(C(=O)N2C[C@H](N)CCN2C)cc2nc(-c3cc4ccc([C@@H](C)NC(=O)c5ccccc5)nc4n3CC3CC3)c(C)n12 [Example 614, N—((R)-1-(2-(7-((R)-5-amino-2-methylhexahydropyridazine-1-carbonyl)-5-methoxy-3-methylimidazo[1,2-a]pyridin-2-yl)-1-(cyclopropylmethyl)-1H-pyrrolo[2,3-b]pyridin-6-yl)ethyl)benzamide]
